Data: patent US7741327B2 (Hoffmann-La Roche Inc., priority 2008, dated 2010)

Target: T1, Recombinant human liver GK1 (GST-GK) (Homo sapiens, UniProt P35557)
T1 construct: made in house; host or cells: E. coli
T1 sequence (P35557 1-466 isoform P35557-2): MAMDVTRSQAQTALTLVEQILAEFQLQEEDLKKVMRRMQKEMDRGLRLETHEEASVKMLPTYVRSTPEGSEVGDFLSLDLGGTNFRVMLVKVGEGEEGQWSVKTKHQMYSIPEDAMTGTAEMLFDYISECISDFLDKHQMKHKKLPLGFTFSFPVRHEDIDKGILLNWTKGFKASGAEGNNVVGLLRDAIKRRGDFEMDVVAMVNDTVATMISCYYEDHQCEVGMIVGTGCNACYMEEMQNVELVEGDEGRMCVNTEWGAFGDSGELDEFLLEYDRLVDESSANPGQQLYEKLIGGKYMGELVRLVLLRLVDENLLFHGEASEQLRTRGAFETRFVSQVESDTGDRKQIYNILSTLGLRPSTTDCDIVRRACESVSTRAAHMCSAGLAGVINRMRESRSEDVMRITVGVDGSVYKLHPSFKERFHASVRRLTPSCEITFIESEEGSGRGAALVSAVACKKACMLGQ
Assay: In vitro glucokinase activity (G6PDH-coupled NADH assay)
Format: biochemical
Conditions: 30° C., 5 mM D-glucose, 10% DMSO
Procedure, shortened: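 Activation measured as the rate of OD340 rise from G6PDH-coupled NADH production, relative to 10% DMSO control, reported as SC1.5 (concentration for 50% activity increase). Conditions: 30° C, pH 7.1 Hepes, 5 mM glucose, 1 mM ATP, purified recombinant GST-human GK1, compound preincubated 10 min before enzyme addition.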

| SC1.5 (concentration of activator that produced a 50% increase in the activity of GK) | Structure (SMILES) |
| --- | --- |
| 0.047 µM | COC(=O)c1ccc(NC(=O)[C@H](CC2CCCCC2)N2CC(Oc3c(F)cccc3Cl)=CC2=O)nc1 [Example 69, 6-{(S)-2-[4-(2-Chloro-6-fluoro-phenoxy)-2-oxo-2,5-dihydro-pyrrol-1-yl]-3-cyclohexyl-propionylamino}-nicotinic acid methyl ester] |
| 0.09 µM | O=C(Nc1ccn(C[C@@H](O)CO)n1)C(CC1C[C@@H](F)[C@@H](F)C1)N1CC(Oc2ccccc2Cl)=CC1=O (stereo partly drawn) [Example 263, 2-[4-(2-Chloro-phenoxy)-2-oxo-2,5-dihydro-pyrrol-1-yl]-3-((1R,3S,4R)-3,4-difluoro-cyclopentyl)-N-[1-((R)-2,3-dihydroxy-propyl)-1H-pyrazol-3-yl]-propionamide] |
| 0.024 µM | CCOc1ccc(F)c(OC2=CC(=O)N([C@@H](CC(C)C)C(=O)Nc3ccn(CC(C)(C)O)n3)C2)c1F [Example 260, (S)-2-[4-(3-Ethoxy-2,6-difluoro-phenoxy)-2-oxo-2,5-dihydro-pyrrol-1-yl]-4-methyl-pentanoic acid [1-(2-hydroxy-2-methyl-propyl)-1H-pyrazol-3-yl]-amide] |
| 0.148 µM | CC(C)(O)Cn1ccc(NC(=O)C(CC2CCOCC2)N2CC(Oc3c(F)cccc3F)=CC2=O)n1 (centres unmarked) [Example 42, 2-[4-(2,6-Difluoro-phenoxy)-2-oxo-2,5-dihydro-pyrrol-1-yl]-N-[1-(2-hydroxy-2-methyl-propyl)-1H-pyrazol-3-yl]-3-(tetrahydro-pyran-4-yl)-propionamide] |
| 0.055 µM | Cn1ccc(NC(=O)[C@H](CC2CCCCC2)N2CC(Oc3c(F)cccc3Cl)=CC2=O)n1 [Example 68, (S)-2-[4-(2-Chloro-6-fluoro-phenoxy)-2-oxo-2,5-dihydro-pyrrol-1-yl]-3-cyclohexyl-N-(1-methyl-1H-pyrazol-3-yl)-propionamide] |
| 0.017 µM | Cl.O=C(Nc1ccn(C[C@@H](O)CO)n1)[C@H](CC1CCCCC1)N1CC(Oc2c(F)ccc(Cl)c2F)=CC1=O [Example 76, (S)-2-[4-(3-Chloro-2,6-difluoro-phenoxy)-2-oxo-2,5-dihydro-pyrrol-1-yl]-3-cyclohexyl-N-[1-((R)-2,3-dihydroxy-propyl)-1H-pyrazol-3-yl]-propionamide Hydrochloride] |
| 0.234 µM | CC(C)C[C@@H](C(=O)Nc1ccn(C[C@@H](O)CO)n1)N1CC(Oc2cccc(N3CCCC3)c2F)=CC1=O [Example 142, (S)-2-[4-(2-Fluoro-3-pyrrolidin-1-yl-phenoxy)-2-oxo-2,5-dihydro-pyrrol-1-yl]-4-methyl-pentanoic acid [1-((R)-2,3-dihydroxy-propyl)-1H-pyrazol-3-yl]-amide] |
| 0.012 µM | Cc1cccc(OC2=CC(=O)N([C@@H](CC3CCCCC3)C(=O)Nc3ccn(CC(C)(C)O)n3)C2)c1C [Example 204, (S)-3-cyclohexyl-2-[4-(2,3-dimethyl-phenoxy)-2-oxo-2,5-dihydro-pyrrol-1-yl]-N-[1-(2-hydroxy-2-methyl-propyl)-1H-pyrazol-3-yl]-propionamide] |
| 0.22 µM | CCOc1ccc(F)c(OC2=CC(=O)N([C@@H](CC(C)C)C(=O)Nc3ccn(C[C@@H]4COC(C)(C)O4)n3)C2)c1F [Example 116, (S)-2-[4-(3-Ethoxy-2,6-difluoro-phenoxy)-2-oxo-2,5-dihydro-pyrrol-1-yl]-4-methyl-pentanoic acid [1-((R)-2,2-dimethyl-[1,3]dioxolan-4-yl-methyl)-1H-pyrazol-3-yl]-amide] |
| 0.056 µM | CC[C@H](C)C[C@@H](C(=O)Nc1ccn(C[C@@H](O)CO)n1)N1CC(Oc2ccccc2Cl)=CC1=O (single isomer, unassigned) [Example 251] |
| 0.053 µM | COc1cccc(OC2=CC(=O)N(C(CC3CCOCC3)C(=O)Nc3ccn(C[C@@H](O)CO)n3)C2)c1Cl (stereo partly drawn) [Example 53, 2-[4-(2-Chloro-3-methoxy-phenoxy)-2-oxo-2,5-dihydro-pyrrol-1-yl]-N-[1-((R)-2,3-dihydroxy-propyl)-1H-pyrazol-3-yl]-3-(tetrahydro-pyran-4-yl)-propionamide] |
| 0.055 µM | O=C(O)c1ccc(NC(=O)[C@H](CC2CCCCC2)N2CC(Oc3c(F)ccc(Cl)c3F)=CC2=O)nc1 [Example 74, 6-{(S)-2-[4-(3-Chloro-2,6-difluoro-phenoxy)-2-oxo-2,5-dihydro-pyrrol-1-yl]-3-cyclohexyl-propionylamino}-nicotinic acid] |
| 0.025 µM | COC(=O)c1ccc(NC(=O)[C@H](CC2CCCCC2)N2CC(Oc3c(F)cccc3F)=CC2=O)nc1 [Example 39, 6-{(S)-3-Cyclohexyl-2-[4-(2,6-difluoro-phenoxy)-2-oxo-2,5-dihydro-pyrrol-1-yl]-propionylamino}-nicotinic acid methyl ester] |
| 0.012 µM | COc1cccc(OC2=CC(=O)N([C@@H](CC3CCCCC3)C(=O)Nc3ccn(C[C@@H](O)CO)n3)C2)c1 [Example 164, (S)-3-Cyclohexyl-N-[1-((R)-2,3-dihydroxy-propyl)-1H-pyrazol-3-yl]-2-[4-(3-methoxy-phenoxy)-2-oxo-2,5-dihydro-pyrrol-1-yl]-propionamide] |
| 0.076 µM | CC(C)(O)Cn1ccc(NC(=O)[C@H](CC2CCCCC2)N2CC(Oc3cccc(C(F)(F)F)c3)=CC2=O)n1 [Example 209, (S)-3-cyclohexyl-N-[1-(2-hydroxy-2-methyl-propyl)-1H-pyrazol-3-yl]-2-[2-oxo-4-(3-trifluoromethyl-phenoxy)-2,5-dihydro-pyrrol-1-yl]-propionamide] |
| 0.894 µM | O=C(Nc1ccn(C[C@@H](O)CO)n1)[C@H](Cc1ccccc1Cl)N1CC(Oc2ccccc2Cl)=CC1=O [Example 189, (S)-2-[4-(2-chloro-phenoxy)-2-oxo-2,5-dihydro-pyrrol-1-yl]-N-[1-((R)-2,3-dihydroxy-propyl)-1H-pyrazol-3-yl]-3-(2-chlorophenyl)-propionamide] |
| 0.105 µM | CC(C)C[C@@H](C(=O)Nc1ccn(C[C@@H](O)CO)n1)N1CC(Oc2cccc(C3CC3)c2F)=CC1=O [Example 147, (S)-2-[4-(3-Cyclopropyl-2-fluoro-phenoxy)-2-oxo-2,5-dihydro-pyrrol-1-yl]-4-methyl-pentanoic acid [1-((R)-2,3-dihydroxy-propyl)-1H-pyrazol-3-yl]-amide] |
| 0.028 µM | CC(C)(O)Cn1ccc(NC(=O)[C@H](CC2CCCCC2)N2CC(Oc3c(F)cccc3Cl)=CC2=O)n1 [Example 67, (S)-2-[4-(2-Chloro-6-fluoro-phenoxy)-2-oxo-2,5-dihydro-pyrrol-1-yl]-3-cyclohexyl-N-[1-(2-hydroxy-2-methyl-propyl)-1H-pyrazol-3-yl]-propionamide] |
| 1.849 µM | CCC[C@@H](C(=O)Nc1ccn(C[C@@H](O)CO)n1)N1CC(Oc2c(F)cccc2F)=CC1=O [Example 157, (S)-2-[4-(2,6-Difluoro-phenoxy)-2-oxo-2,5-dihydro-pyrrol-1-yl]-pentanoic acid [1-((R)-2,3-dihydroxy-propyl)-1H-pyrazol-3-yl]-amide] |
| 0.477 µM | CC(C)(O)Cn1ccc(NC(=O)[C@H](CC2CCCCO2)N2CC(Oc3c(F)cccc3F)=CC2=O)n1 (stereo partly drawn) [Example 93, (S)-2-[4-(2,6-Difluoro-phenoxy)-2-oxo-2,5-dihydro-pyrrol-1-yl]-N-[1-(2-hydroxy-2-methyl-propyl)-1H-pyrazol-3-yl]-3-(tetrahydro-pyran-2-yl)-propionamide] |
| 0.932 µM | CCOc1ccccc1OC1=CC(=O)N([C@@H](CC(C)C)C(=O)Nc2ccn(CC(C)(C)O)n2)C1.Cl [Example 81, (S)-2-[4-(2-ethoxy-phenoxy)-2-oxo-2,5-dihydro-pyrrol-1-yl]-4-methyl pentanoic acid [1-(2-hydroxy-2-methyl-propyl)-1H-pyrazol-3-yl]-amide hydrochloride] |
| 0.006 µM | CC(C)(O)Cn1ccc(NC(=O)[C@H](CC2CCCCC2)N2CC(Oc3ccccc3Cl)=CC2=O)n1 [Example 61, (S)-2-[4-(2-Chloro-phenoxy)-2-oxo-2,5-dihydro-pyrrol-1-yl]-3-cyclohexyl-N-[1-(2-hydroxy-2-methyl-propyl)-1-H-pyrazol-3-yl]-propionamide] |
| 0.336 µM | Cc1ccccc1OC1=CC(=O)N([C@@H](CC(C)C)C(=O)Nc2ccn(C[C@@H](O)CO)n2)C1 [Example 124, (S)-4-Methyl-2-(2-oxo-4-o-tolyloxy-2,5-dihydro-pyrrol-1-yl)-pentanoic acid [1-((R)-2,3-dihydroxy-propyl)-1H-pyrazol-3-yl]-amide] |
